Laboratory results: US20110055943A1, “NOVEL THERAPEUTIC TARGETS IN INFLAMMATORY BOWEL DISEASE” (SALIX PHARMACEUTICALS, LTD., priority 2007, published 2011)

How the values were obtained:
[1] = Intestinal tract distribution of RIF and RIFax in mice (intestinal contents, LC-MS/MS); assay type: in vivo; conditions: mice; for intestinal tract concentration compared with RIF: oral treatment
Experimental: The maximum concentration in serum (Cmax) was obtained from the original data. […] Intestinal contents were weighted, and homogenized in methanol (100 mg/ml). The homogenate was centrifuged at 14,000 rpm for 10 min at 4° C.
The mass spectrometer was operated in the turbo ion spray mode with positive ion detection. The turbo ion spray temperature was maintained at 300° C., and a voltage of 4.8 kV was applied to the sprayer needle. N2 was used as the turbo ion spray and nebulizing gas.

[2] = target: T1, CAR (Mus musculus, UniProt O35627); experiment: Cell-based reporter assay, transfected HCT116 cells, dual luciferase; conditions: 10 μM, 24 h
T1 construct: expressed in transfected cells; host or cells: HCT116
T1 sequence (O35627 1-358): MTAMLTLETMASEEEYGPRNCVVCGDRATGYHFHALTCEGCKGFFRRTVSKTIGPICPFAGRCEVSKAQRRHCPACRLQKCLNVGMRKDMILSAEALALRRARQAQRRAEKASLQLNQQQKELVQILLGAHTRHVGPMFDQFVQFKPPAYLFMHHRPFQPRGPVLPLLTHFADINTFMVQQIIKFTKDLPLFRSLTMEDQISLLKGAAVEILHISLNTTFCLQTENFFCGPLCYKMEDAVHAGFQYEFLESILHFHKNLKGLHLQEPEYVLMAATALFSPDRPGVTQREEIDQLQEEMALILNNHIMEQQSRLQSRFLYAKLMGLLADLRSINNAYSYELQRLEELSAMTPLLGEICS
Experimental: (§1) A hepG2 cell line (DPX2) with stable expression of recombinant human PXR and a PXR-response element cloned in a luciferase vector was obtained from Puracyp Inc. (Carlsbad, Calif.). The construction and validation of the cell lines were reported previously (Yueh et al., 2005). The cells were seeded according to the distributor's instruction. […] The activation of PXR was determined by measuring the firefly luciferase activity 24 h later, followed by normalization of luciferase activity by protein concentrations. For cell-based reporter assay of nuclear receptors CAR, PPARα, PPARγ, and FXR, HCT116 cells were plated on 24-well plates (5×10^4 cells/well, cultured in DMEM containing 10% FBS), and transfected with the various expression vectors using Fugene transfection reagent (Roche, Indianapolis, Ind.). The mouse PPAR and CAR vectors were described in previous reports (Kliewer et al., 1992; Swales et al., 2005). The mouse FXR vector was provided by Dr Christopher J. Sinal. […] TCPOBOP (250 nM), Wy-14,643 (10 μM), rosiglitazone (10 μM), and GW4064 (25 μM) were used as positive controls respectively for mouse CAR, PPARα, PPARγ, and FXR. A standard dual luciferase assay was used and normalized to a cotransfected control reporter (Promega, Madison, Wis.). Each in vitro assay was repeated at least three times.

[3] = target: T2, FXR (Mus musculus, UniProt Q60641); experiment: as above; conditions: 10 μM, 24 h
T2 construct: expressed in transfected cells; host or cells: HCT116
T2 sequence (Q60641 1-488): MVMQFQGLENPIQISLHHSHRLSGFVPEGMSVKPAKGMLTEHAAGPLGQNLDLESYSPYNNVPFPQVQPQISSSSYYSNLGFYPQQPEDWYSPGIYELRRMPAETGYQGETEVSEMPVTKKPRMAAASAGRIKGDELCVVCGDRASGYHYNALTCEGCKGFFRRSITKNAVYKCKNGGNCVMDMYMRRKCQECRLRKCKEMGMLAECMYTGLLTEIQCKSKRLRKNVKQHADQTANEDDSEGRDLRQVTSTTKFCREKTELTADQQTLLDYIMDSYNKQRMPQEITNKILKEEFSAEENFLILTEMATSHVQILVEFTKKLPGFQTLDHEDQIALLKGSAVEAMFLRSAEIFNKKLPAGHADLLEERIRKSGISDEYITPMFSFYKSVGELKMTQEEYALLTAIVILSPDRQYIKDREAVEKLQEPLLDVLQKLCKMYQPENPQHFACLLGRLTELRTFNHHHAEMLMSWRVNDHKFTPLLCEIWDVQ
Experimental: as §1

[4] = target: T3, PPARα (Mus musculus, UniProt P23204); experiment: as above; conditions: 10 μM, 24 h
T3 construct: expressed in transfected cells; host or cells: HCT116
T3 sequence (P23204 1-468): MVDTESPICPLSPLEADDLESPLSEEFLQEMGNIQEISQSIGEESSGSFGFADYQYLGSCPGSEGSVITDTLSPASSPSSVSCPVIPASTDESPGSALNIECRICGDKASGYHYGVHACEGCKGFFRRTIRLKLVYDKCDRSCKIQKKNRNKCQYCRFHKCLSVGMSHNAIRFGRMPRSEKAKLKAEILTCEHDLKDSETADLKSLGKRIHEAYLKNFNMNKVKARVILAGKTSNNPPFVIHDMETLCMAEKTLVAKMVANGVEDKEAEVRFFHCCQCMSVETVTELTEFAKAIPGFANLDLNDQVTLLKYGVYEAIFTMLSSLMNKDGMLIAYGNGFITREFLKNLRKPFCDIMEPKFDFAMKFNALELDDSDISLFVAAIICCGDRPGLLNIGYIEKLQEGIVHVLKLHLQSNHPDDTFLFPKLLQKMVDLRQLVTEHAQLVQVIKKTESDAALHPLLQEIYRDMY
Experimental: as §1

[5] = test system: PXR target genes (CYP3A11, GSTA1, MRP2, OATP2); experiment: qPCR analysis of PXR target genes in hPXR mice
Experimental: RIF, a specific human PXR ligand, was used as positive control at 25 mg/kg/day (p.o.) for 3 days. […] Liver and small intestine were collected and frozen at −80° C. for further analysis.
RNA was extracted from different tissues using TRIzol reagent (Invitrogen, Carlsbad, Calif.). qPCR was performed using cDNA generated from 1 μg total RNA with SuperScript II Reverse Transcriptase kit (Invitrogen). PCR reactions were carried out using SYBR green PCR master mix (SuperArray) in an ABI Prism 7900HT Sequence Detection System (Applied Biosystems, Foster City, Calif.). Values were quantified using the Comparative CT method, and samples normalized to β-actin.

[6] = small intestine, 25 mg/kg/day p.o. 3 days

COC1/C=C/OC2(C)Oc3c(C)c(O)c4c(O)c(c5c(nc6cc(C)ccn65)c4c3C2=O)NC(=O)/C(C)=C\C=C\C(C)C(O)C(C)C(O)C(C)C(OC(C)=O)C1C (stereo not drawn) [RIFax, 4-Deoxy-4′-methylpyrido[1′,2′-1,2]imidazo[5,4-c]rifamycin SV]
concentration in the intestinal tract (intestinal content) ([1]; 10 mg/kg single dose p.o.): up to 150 ug/g | concentration in the intestinal tract (intestinal content), molar ([1]; 10 mg/kg single dose p.o.): about 200 μM | intestinal tract concentration compared with RIF [1]: significantly higher | intestinal tract concentration compared with RIF ([1]; listed as Rifaximin): highly concentrated | concentration in the small intestine (content) ([1]; single oral dose 10 mg/kg): ~160 µg/g | time the small intestine concentration lasted following administration ([1]; single oral dose 10 mg/kg): 9 h | change in luciferase activity in the presence of CAR [2]: no significant change | change in luciferase activity in the presence of FXR [3]: no significant change | change in luciferase activity in the presence of PPARα [4]: no significant change | CYP3A11, GSTA1, MRP2 and OATP2 mRNAs in small intestine ([5]; 25 mg/kg/day p.o. 3 days): all up-regulated | MRP2 in the gut ([5]; 25 mg/kg/day p.o. 3 days): only modestly induced | PXR target genes in the intestine ([5]; intestine, oral treatment): significant induction | GSTA1 in liver ([5]; liver, 25 mg/kg/day p.o. 3 days): increased | effect on hepatic PXR target genes ([5]; liver, oral treatment): no significant effect | Intestinal CYP3A11 increase compared to vehicle-treated mice [5, 6]: ~4 fold | Intestinal GSTA1 mRNA increase [5, 6]: 172% | Intestinal OATP2 mRNA increase [5, 6]: 3.4 fold | intestinal MRP2 mRNA [5, 6]: significant up-regulation
